Columns and labels:
[1] = system: EAE model; test: Clinical disease ameliorating effect in rat EAE (multiple sclerosis) model; assay type: in vivo, DA strain rats; conditions: DA rats
[2] = system: EAE model; test: Histological evaluation of spinal cord inflammation in rat EAE model; assay type: in vivo, DA strain rats; conditions: 10 mg/kg once a day through a feeding tube, 12 days after immunization
[3] = 10 mg/kg once a day through a feeding tube

## CC(C)C(=O)c1c(C(C)C)nn2ccccc12 [ibudilast]
[1]; 2 mg/kg once a day through a feeding tube
  clinical disease condition (clinical score) versus control group: tendency of amelioration
[1]; [3]
  body weight decrease: suppressed significantly
  clinical disease condition (clinical score) versus control group: significant amelioration
[1]; ibudilast-treated group, oral once a day
  disease onset: delayed
[2]
  histological effect in comparison with the control: significant effect histologically
[2]; score scale 0-4
  average histological score (inflammation, lumbar spinal cord, hematoxylin-eosin): about 2.0

Reference: patent US6395747B1, “Remedies for multiple sclerosis” (Kyorin Pharmaceutical Co., Ltd., priority 2001, dated 2002)
